From US7026488B2, “Antitumor agents and process for producing the same” (priority 2001, dated 2006)
“Also recorded” adds a separate entry of the source.

Columns and labels:
Solubility in water = assay type: physicochemical; details: for i.v. injection
tumor = details: administered into the tumor feeding artery, oily formulation; K. Doi et al. 1999; cited from earlier work
[1] = target: T1, purified heme oxygenase fraction derived from rat spleen (Rattus norvegicus, UniProt P06762); assay: Inhibitory activity against heme oxygenase (bilirubin formation, Lineweaver-Burk plot); assay type: biochemical
T1 construct: purified heme oxygenase fraction derived from rat spleen; from tissue; host or cells: rat spleen
T1 sequence (P06762 1-289): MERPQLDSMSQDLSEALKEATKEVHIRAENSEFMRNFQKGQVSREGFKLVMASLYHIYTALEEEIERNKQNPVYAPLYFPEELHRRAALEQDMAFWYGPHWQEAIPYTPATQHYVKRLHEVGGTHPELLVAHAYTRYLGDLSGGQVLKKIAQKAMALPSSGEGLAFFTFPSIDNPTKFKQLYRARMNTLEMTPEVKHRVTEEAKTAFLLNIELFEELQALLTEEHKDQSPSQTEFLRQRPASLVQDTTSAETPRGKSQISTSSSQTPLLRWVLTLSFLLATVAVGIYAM
Experimental: This was examined using purified heme oxygenase fraction derived from rat spleen. It was assayed at 37° C. in the presence of hemin, the substrate of heme oxygenase, cofactor (NADPH, […]), and cytosolic fraction containing bilirubin reductase, in which biliverdin formed by the oxygenase is converted to bilirubin.
Bilirubin was extracted with chloroform and quantified by absorption at 465 nm. By the addition of either PEG-ZnPP, or unmodified ZnPP, or no inhibitor, their effect on heme oxidase was examined, and the Lineweaver-Burk plot of heme oxygenase activity was plotted during the inhibition by PEG-ZnPP. […] Mode of inhibition was competitive, and the value was equivalent to that of unmodified ZnPP.

[2] = Change of body weight in mice bearing solid tumor; assay type: in vivo, mouse; details: ddY mice bearing S180, during or after i.v. administration, FIG. 5
Experimental: (§1) Similar to Experiment 3 above, sarcoma S180 of mice implanted under the dosal skin of ddY mice, and after 10, 13 and 15 days after tumor implantation, PEG-ZnPP at 30 n mole, 30 n mole and 50 n mole (3 times only), respectively, was injected into the tail vein respectively (see also arrow marks in FIG. 4). Control mice received distilled water instead of PEG-ZnPP.

sarcoma S180 = assay: Antitumor effect in mice bearing solid tumor; assay type: in vivo, mouse; details: ddY mice, i.v. 30, 30 and 50 n mole on days 10, 13 and 15 after implantation, FIG. 4
Experimental: as §1

[3] = tested on: heme oxygenase in S 180 sarcoma tumor tissue; assay: Inhibition of heme oxygenase in solid tumor model in mouse; assay type: in vivo; details: ddY mice, S 180 tumor
Experimental: In male ddY mice with mean body weight of 35 g, S 180 sarcoma cells were implanted in the dorsal skin, and when solid tumor size become 5 mm in cross diameter after about one week, PEG-ZnPP dissolved in distilled water were injected via tail vein (i.v.) at 0.5 mg ZnPP equivalent per Kg body weight. The solid tumors were removed after 24 hr, and heme oxygenase activity was quantified similarly as described in Example 1. Control mouse received distilled water without PEG-ZnPP. The tumor specimens were obtained and treated similarly.

[4] = tested on: Lung adenocarcinoma cell line A549 cells; assay: Oxidative stress in cultured tumor cells (DCDHF fluorescence, flow cytometry); assay type: cell-based; details: 5 μM and 10 μM, 8 hrs, compared with no drug, FIG. 3
Experimental: Lung adenocarcinoma cell line A549 cells were plated in plastic dish and after overnight culture, 5 μM and 10 μM of PEG-ZnPP dissolved in distilled water were added to the culture dishes. Then, 8 hrs after cultivation at 37° C., a reagent that quantifies oxidative stress, called dichlorodihydrofluorescein diacetyl ester (DCDHF) was added and allowing cell culture for 30 minutes. Under oxidative stress, this DCDHF will be become oxidized and will fluoresce due to oxystress was generated by formation of fluorescein in cells.
Quantification of fluorescence intensity represents the extent of oxidative stress induced in the cells. Then, cultured cells were trypsinized and recovered cells were subjected to the flow cytometrory analysis and fluorescence cell population was quantified. The results are shown in FIG. 3, where the effect of PEG-ZnPP at 5 μM, 10 μM, is compared with that of no drug.

Ki ([1]; 37° C., hemin substrate, NADPH, cytosolic fraction with bilirubin reductase, read-out: inhibitory constant (Ki) against heme oxygenase) [nM] | Mode of inhibition of heme oxygenase ([1]; Lineweaver-Burk plot, FIG. 2) | Compound | Solubility in water (Solubility in water) | Solubility in water (Solubility in water; listed as Unmodified ZnPP) | Antitumor effect in rats (tumor) | Inhibition of heme oxygenase (in words) ([1]; FIG. 2) | Body weight change [2] | Tumor growth (tumor size) compared with control group (sarcoma S180) | Activity of heme oxygenase in tumor tissue ([3]; i.v. tail vein 0.5 mg ZnPP equivalent per Kg, tumor removed after 24 hr, control 4.17 ± 1.07 (P < 0.02)) | Effect on intratumor heme oxygenase activity (in words) ([3]; i.v. tail vein, 24 hr) | intracellular oxidative state (DCDHF fluorescence) [4]
– | – | C=CC1=C(C)c2cc3[n-]c(cc4nc(cc5[n-]c(cc1n2)c(C)c5C=C)C(C)=C4CCC(=O)O)c(CCC(=O)O)c3C.[Zn+2] [ZnPP, zinc protoporphyrin] | almost insoluble in water | could not be administered i.v. because of its difficulty in solubility; also recorded: Impossible to solubilize | confirmed antitumor effect in rats | – | – | – | – | – | –
130 | competitive | Polyethylene Glycol Conjugated ZnPP [PEG-ZnPP] | – | – | – | inhibits the heme oxygenase in a dose dependent manner | no remarkable body weight loss | remarkable suppression of tumor growth | 2.30 ± 0.54 n mol bilirubin/mg protein/hr | significant reduction of the heme oxygenase activity | higher intracellular oxidative state in the dose dependent manner
